Patent US11834678B2, “Hematopoietic stem cells with improved properties” (Yeda Research and Development Co. Ltd., priority 2017, dated 2023)

Experiments:
HSPCs = experiment: HSPC levels in bone marrow after 6 days of NAC injections (FACS); format: in vivo; conditions: CD74−/− mice; NAC 50 mg/kg i.p. for 6 days; compared to WT levels
Protocol: FIGS. 8A-L illustrate that CD74 regulates stem cell retention. (FIGS. 8A-C) FACS staining of HSPCs from WT and CD74^−/− mice for Ki-67. Results are represented as: (FIG. 8A) Percentage of Ki-67^+ from CD34^−LSK and percentage of Ki-67^+ from CD34^+ LSK, (FIG. 8B) percentage of CD34−LSK Ki-67− and CD34−LSK Ki-67+ from total BM cells and (FIG. 8C) percentage of CD34^+ LSK Ki-67^− and CD34^+ LSK Ki-67^+ from total BM cells, n=15. (FIGS. 8D-E) Mice were fed with 0.8 mg/ml BrdU in the drinking water for 3 days and BrdU incorporation was analyzed by FACS. Results are represented as: (FIG. 8D) % BrdU^+ in LSK; (FIG. 8E) percentage of LSK BrdU^− and percentage of LSK BrdU^+ from total BM cells, n=12-14. (FIG. 8F-G) FACS staining of HSPCs from WT and CD74^−/− mice for ROS. Results are represented as number of ROS high in million cells, n=9. (FIGS. 8H-I) percentage of HSPCs after 6 days of NAC injections mg/ml, n=5. (FIG. 8J) FACS staining of HSPCs from WT and CD74^−/− mice for Annexin V, n=10-12, and after 24 hours in hypoxia (FIG. 8K), n=4-5. (FIG. 8L) Ratio of Annexin V+CD74^−/− to WT of HSPCs in hypoxia and normoxic conditions. Bars show SEM. Unpaired t-test two tailed *<0.05 **<0.01.
Electron transfer along the mitochondrial respiration chain induces the formation of ROS (Kobayashi and Suda, 2012). […]

HSPC = conditions: after a single injection; cited from earlier work

Compound | levels of HSPCs (HSPCs) | time to mobilization of HSPC (HSPC)
CC(=O)N[C@@H](CS)C(=O)O [NAC, N-acetyl-L-cystein] | partially reduced | –
Zymosan | – | ≤ 1 h
